Reference: doi:10.1101/151233v4 (biorxiv, 2018)

Target: T1, truncated chicken MR (GAL4-DBD-MR-LBD) (Gallus gallus, UniProt C1KB84)
T1 sequence (C1KB84 729-986): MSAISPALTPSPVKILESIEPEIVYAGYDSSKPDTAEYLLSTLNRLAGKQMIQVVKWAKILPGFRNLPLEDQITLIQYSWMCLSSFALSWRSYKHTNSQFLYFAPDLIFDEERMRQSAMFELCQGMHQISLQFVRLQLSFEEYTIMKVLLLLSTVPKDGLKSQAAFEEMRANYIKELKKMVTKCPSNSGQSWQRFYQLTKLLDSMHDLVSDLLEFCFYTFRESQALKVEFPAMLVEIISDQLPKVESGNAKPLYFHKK
Assay: luciferase reporter transactivation in HEK293, GAL4-DBD fusion
Format: cell-based

Question: C[C@]12CCC(=O)C=C1CC[C@@H]1[C@@H]2[C@@H](O)C[C@]2(C=O)[C@@H](C(=O)CO)CC[C@@H]12 [aldosterone] was tested. Which EC50 did it give?
Answer: 0.13 nM

Question: Which EC50 does the source give for C[C@]12CCC(=O)C=C1CC[C@@H]1[C@@H]2[C@@H](O)C[C@@]2(C)[C@H]1CC[C@]2(O)C(=O)CO [cortisol] here?
Answer: 0.69 nM
